# Experimental data: patent US20190367516A1 (Bayer Pharma Aktiengesellschaft, priority 2015, published 2019)
# Assays:
# human M2 receptor [1] = molecular target: T1, human M2 receptor (Homo sapiens, UniProt P08172); settings: for EC50: Receptor activity EC50, M2-GIRK1/4 activation test, acetylcholine at EC20, allosteric potency, in some cases mean values from two or more determinations
# T1 sequence (P08172 1-466): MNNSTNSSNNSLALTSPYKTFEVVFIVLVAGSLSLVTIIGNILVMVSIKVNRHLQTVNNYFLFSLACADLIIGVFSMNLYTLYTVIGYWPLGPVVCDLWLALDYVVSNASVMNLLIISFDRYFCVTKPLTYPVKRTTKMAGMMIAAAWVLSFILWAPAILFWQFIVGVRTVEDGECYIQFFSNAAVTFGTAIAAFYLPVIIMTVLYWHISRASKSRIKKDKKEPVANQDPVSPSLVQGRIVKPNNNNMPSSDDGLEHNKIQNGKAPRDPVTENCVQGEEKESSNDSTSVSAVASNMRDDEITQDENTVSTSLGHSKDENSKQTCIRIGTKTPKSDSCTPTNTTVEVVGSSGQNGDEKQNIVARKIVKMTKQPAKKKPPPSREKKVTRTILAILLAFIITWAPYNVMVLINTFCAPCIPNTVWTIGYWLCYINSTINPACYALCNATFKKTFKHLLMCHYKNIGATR
# human M2 receptor [2] = molecular target: T1, human M2 receptor; format: cell-based; settings: shift in the acetylcholine dose-response curve (Allosteric EC50 shift, GraphPad PRISM); α >1 = positive cooperativity
SMILES,EC50 (human M2 receptor [1]),Cooperativity (alpha factor) (human M2 receptor [2]),Emax (human M2 receptor [1]; read-out: Efficiency)
"CC12CCC(NC(=O)c3cn(-c4ccc(F)cc4F)c4nc(N5CC[C@@H](O)C5)ccc4c3=O)(CC1)CC2 [Example 20, 1-(2,4-Difluorophenyl)-7-[(3R)-3-hydroxypyrrolidin-1-yl]-N-(4-methylbicyclo[2.2.2]oct-1-yl)-4-oxo-1,4-dihydro-1,8-naphthyridine-3-carboxamide]",42 nM,34,–
"CC[C@@H](NC(=O)c1cn(-c2ccc(F)cc2F)c2nc(NCCF)ccc2c1=O)C(F)(F)F [Example 27, 1-(2,4-Difluorophenyl)-7-[(2-fluoroethyl)amino]-4-oxo-N-[(2R)-1,1,1-trifluorobutan-2-yl]-1,4-dihydro-1,8-naphthyridine-3-carboxamide]",89 nM,20,–
"CC[C@@H](NC(=O)c1cn(-c2ccc(F)cc2F)c2nc(N3C[C@@H](F)C[C@H]3C)ccc2c1=O)C(F)(F)F [Example 31, 1-(2,4-Difluorophenyl)-7-[(2R,4S)-4-fluoro-2-methylpyrrolidin-1-yl]-4-oxo-N-[(2R)-1,1,1-trifluorobutan-2-yl]-1,4-dihydro-1,8-naphthyridine-3-carboxamide]",40 nM,13,–
"CC[C@@H](NC(=O)c1cn(-c2ccc(F)cc2F)c2nc(N3CC[C@@H](F)[C@H](O)C3)ccc2c1=O)C(F)(F)F [Example 33, 1-(2,4-Difluorophenyl)-7-[(3R,4R)-4-fluoro-3-hydroxypiperidin-1-yl]-4-oxo-N-[(2R)-1,1,1-trifluorobutan-2-yl]-1,4-dihydro-1,8-naphthyridine-3-carboxamide]",91 nM,20,–
"CN(C)c1ccc2c(=O)c(C(=O)NC34CC5CC(CC(C5)C3)C4)cn(-c3ccc(F)cc3F)c2n1 [Example 36, 1-(2,4-Difluorophenyl)-7-(dimethylamino)-4-oxo-N-(tricyclo[3.3.1.1^3,7]dec-1-yl)-1,4-dihydro-1,8-naphthyridine-3-carboxamide]",19 nM,16,96.1%
"CN(C)c1ccc2c(=O)c(C(=O)NC34CC5CC(F)(CC(F)(C5)C3)C4)cn(-c3ccc(F)cc3F)c2n1 [Example 38, 1-(2,4-Difluorophenyl)-N-(3,5-difluorotricyclo[3.3.1.1^3,7]dec-1-yl)-7-(dimethylamino)-4-oxo-1,4-dihydro-1,8-naphthyridine-3-carboxamide]",41 nM,14,–
"CN(C)c1ccc2c(=O)c(C(=O)NC34CC5CC(C3)C(F)(F)C(C5)C4)cn(-c3ccc(F)cc3F)c2n1 [Example 39, 1-(2,4-Difluorophenyl)-N-(4,4-difluorotricyclo[3.3.1.1^3,7]dec-1-yl)-7-(dimethylamino)-4-oxo-1,4-dihydro-1,8-naphthyridine-3-carboxamide]",88 nM,14,–
"CN(C)c1ccc2c(=O)c(C(=O)NCc3ccccc3C(F)(F)F)cn(-c3ccc(F)cc3F)c2n1 [Example 59, 1-(2,4-Difluorophenyl)-7-(dimethylamino)-4-oxo-N-[2-(trifluoromethyl)benzyl]-1,4-dihydro-1,8-naphthyridine-3-carboxamide]",94 nM,11,–
"CC(C)CC(NC(=O)c1cn(-c2ccc(F)cc2F)c2nc(N3CC[C@H](F)C3)ccc2c1=O)C(F)(F)F (stereo partly drawn) [Example 65, 1-(2,4-Difluorophenyl)-7-[(3S)-3-fluoropyrrolidin-1-yl]-4-oxo-N-[1,1,1-trifluoro-4-methylpentan-2-yl]-1,4-dihydro-1,8-naphthyridine-3-carboxamide]",7 nM,36,–
"CCC(NC(=O)c1cn(-c2ccc(F)cc2F)c2nc(N3CC[C@H](F)C3)ccc2c1=O)C(F)(F)F (stereo partly drawn) [Example 71, 1-(2,4-Difluorophenyl)-7-[(3S)-3-fluoropyrrolidin-1-yl]-4-oxo-N-[1,1,1-trifluorobutan-2-yl]-1,4-dihydro-1,8-naphthyridine-3-carboxamide]",39 nM,30,–
"O=C(NC(C(F)(F)F)C(F)(F)F)c1cn(-c2ccc(F)cc2F)c2nc(NCCF)ccc2c1=O [Example 89, 1-(2,4-Difluorophenyl)-7-[(2-fluoroethyl)amino]-N-(1,1,1,3,3,3-hexafluoropropan-2-yl)-4-oxo-1,4-dihydro-1,8-naphthyridine-3-carboxamide]",413 nM,20,–
"O=C(NC12CC3CC(CC(C3)C1)C2)c1cn(-c2ccc(F)cc2F)c2nc(NCC(F)(F)F)ccc2c1=O [Example 90, 1-(2,4-Difluorophenyl)-4-oxo-N-(tricyclo[3.3.1.1^3,7]dec-1-yl)-7-[(2,2,2-trifluoroethyl)amino]-1,4-dihydro-1,8-naphthyridine-3-carboxamide]",298 nM,11,–
"O=C(NC12CCC(F)(CC1)CC2)c1cn(-c2ccc(F)cc2F)c2nc(NCC(F)(F)F)ccc2c1=O [Example 97, 1-(2,4-Difluorophenyl)-N-(4-fluorobicyclo[2.2.2]oct-1-yl)-4-oxo-7-[(2,2,2-trifluoroethyl)amino]-1,4-dihydro-1,8-naphthyridine-3-carboxamide]",209 nM,9,–
"CC12CCC(NC(=O)c3cn(-c4ccc(F)cc4F)c4nc(NCC(F)(F)F)ccc4c3=O)(CC1)CC2 [Example 98, 1-(2,4-Difluorophenyl)-N-(4-methylbicyclo[2.2.2]oct-1-yl)-4-oxo-7-[(2,2,2-trifluoroethyl)amino]-1,4-dihydro-1,8-naphthyridine-3-carboxamide]",61 nM,14,–

# The next lines start with results.
EC50 (human M2 receptor [1]),Cooperativity (alpha factor) (human M2 receptor [2]),SMILES,Emax (human M2 receptor [1]; read-out: Efficiency)
58 nM,12,"CO[C@@H]1CCN(c2ccc3c(=O)c(C(=O)NC45CCC(C)(CC4)CC5)cn(-c4ccc(F)cc4F)c3n2)C1 [Example 19, 1-(2,4-Difluorophenyl)-7-[(3R)-3-methoxypyrrolidin-1-yl]-N-(4-methylbicyclo[2.2.2]oct-1-yl)-4-oxo-1,4-dihydro-1,8-naphthyridine-3-carboxamide]",–
62 nM,24,"CC[C@@H](NC(=O)c1cn(-c2ccc(F)cc2F)c2nc(N3CCC(O)(O)C(F)(F)C3)ccc2c1=O)C(F)(F)F [Example 35, 7-(3,3-Difluoro-4,4-dihydroxypiperidin-1-yl)-1-(2,4-difluorophenyl)-4-oxo-N-[(2R)-1,1,1-trifluorobutran-2-yl]-1,4-dihydro-1,8-naphthyridine-3-carboxamide]",–
111 nM,12,"C[C@H](NC(=O)c1cn(-c2ccc(F)cc2F)c2nc(N(C)C)ccc2c1=O)C(F)(F)F [Example 44, 1-(2,4-Difluorophenyl)-7-(dimethylamino)-4-oxo-N-[(2S)-1,1,1-trifluoropropan-2-yl]-1,4-dihydro-1,8-naphthyridine-3-carboxamide]",–
82 nM,7,"CN(C)c1ccc2c(=O)c(C(=O)Nc3ccccc3C(F)(F)F)cn(-c3ccc(F)cc3F)c2n1 [Example 57, 1-(2,4-Difluorophenyl)-7-(dimethylamino)-4-oxo-N-[2-(trifluoromethyl)phenyl]-1,4-dihydro-1,8-naphthyridine-3-carboxamide]",–
155 nM,8,"CN(C)c1ccc2c(=O)c(C(=O)NCc3c(F)cccc3C(F)(F)F)cn(-c3ccc(F)cc3F)c2n1 [Example 60, 1-(2,4-Difluorophenyl)-7-(dimethylamino)-N-[2-fluoro-6-(trifluoromethyl)benzyl]-4-oxo-1,4-dihydro-1,8-naphthyridine-3-carboxamide]",–
12 nM,28,"CC[C@H](NC(=O)c1cn(-c2ccc(F)cc2F)c2nc(N3CC[C@H](F)C3)ccc2c1=O)C(F)(F)F [Example 64, 1-(2,4-Difluorophenyl)-7-[(3S)-3-fluoropyrrolidin-1-yl]-4-oxo-N-[(2S)-1,1,1-trifluorobutan-2-yl]-1,4-dihydro-1,8-naphthyridine-3-carboxamide]",–
76 nM,29,"O=C(NC(C(F)(F)F)C(F)(F)F)c1cn(-c2ccc(F)cc2F)c2nc(N3CC[C@H](F)C3)ccc2c1=O [Example 70, 1-(2,4-Difluorophenyl)-7-[(3S)-3-fluoropyrrolidin-1-yl]-N-(1,1,1,3,3,3-hexafluoropropan-2-yl)-4-oxo-1,4-dihydro-1,8-naphthyridine-3-carboxamide]",–
129 nM,26,"CC[C@H](NC(=O)c1cn(-c2ccc(F)cc2F)c2nc(NCCF)ccc2c1=O)C(F)(F)F [Example 87, 1-(2,4-Difluorophenyl)-7-[(2-fluoroethyl)amino]-4-oxo-N-[(2S)-1,1,1-trifluorobutan-2-yl]-1,4-dihydro-1,8-naphthyridine-3-carboxamide]",–
213 nM,8,"CC(NC(=O)c1cn(-c2ccc(F)cc2F)c2nc(NCC(F)(F)F)ccc2c1=O)C(F)(F)F (centres unmarked) [Example 93, 1-(2,4-Difluorophenyl)-4-oxo-7-[(2,2,2-trifluoroethyl)amino]-N-[1,1,1-trifluoropropan-2-yl]-1,4-dihydro-1,8-naphthyridine-3-carboxamide]",–
